Test results published in patent publication US5672715A, “Herbicidal substituted 3-aryl-pyrazoles” (Monsanto Company, priority 1995, dated 1997).
Values joined by “and” are separate entries in the source; they are usually repeats but may differ in a detail not shown here. Equal values may be shown once.

How the values were obtained:
Format in all cases: in vivo
[1] = system: Wheat; test: pre-emergence herbicide test; conditions: Triticum aestivum, pre-emergence, 0.25 lb/A; read-out: % plant inhibition
Method: (§1) Topsoil was placed in an aluminum pan and compacted to a depth of 1.3 to 1.6 cm from the top of the pan. On the top of the soil was placed a predetermined number of seeds of each of several monocotyledonous and dicotyledonous annual plant species and/or vegetative propagules of various perennial plant species. The pan was then level filled with a cover layer of topsoil to which was added a known amount of active ingredient either prior to or after application of the cover layer. The active ingredient was dissolved or suspended in an organic solvent, e.g., acetone, or water as carrier for application to the cover layer. The pans were moved to a greenhouse bench where they were thereafter watered from below as needed to give adequate moisture for germination and growth. In some cases, an initial overhead irrigation of 1/4 inch of water was applied immediately after treatment.
(§2) Approximately 14 days after seeding and treating, the pans were observed and the results (% inhibition) were recorded.
(§3) The tables below summarize the results of the pre-emergence herbicidal activity tests of compounds of this invention tested with warm season plants (Tables 2a-2d) and cool season plants (Tables 3a and 3b). The herbicidal rating shown in these tables is the percent inhibition of each plant species. The plant species usually regarded as weeds are identified in the tables by single letter headings and crop species identified by two letter headings both headings being above the columns in accordance with the following legend: […]

[2] = system: Downy Brome; test: pre-emergence herbicide test; conditions: Bromus tectorum, pre-emergence, 0.25 lb/A; read-out: % plant inhibition
Method: as §1, §2, §3

[3] = system: Birdseye Speedwell; test: pre-emergence herbicide test; conditions: pre-emergence, 0.25 lb/A; read-out: % plant inhibition
Method: as §1, §2, §3

[4] = system: Bedstraw Catchweed; test: pre-emergence herbicide test; conditions: Galium aparine, pre-emergence, 0.25 lb/A; read-out: % plant inhibition
Method: as §1, §2, §3

[5] = system: Cocklebur; test: pre-emergence herbicide test; conditions: 0.25 lb/A; for inhibition at 280.212 g/ha: Xanthium strumarium, pre-emergence, read-out: % plant inhibition
Method: as §1, §2, §3

[6] = system: Rape; test: pre-emergence herbicide test; conditions: pre-emergence, 0.25 lb/A; read-out: % plant inhibition
Method: as §1, §2, §3

[7] = system: Barnyardgrass; test: pre-emergence herbicide test; conditions: 0.25 lb/A; for inhibition at 280.212 g/ha: Echinochloa crus-galli, pre-emergence, read-out: % plant inhibition
Method: as §1, §2, §3

[8] = system: Velvetleaf; test: pre-emergence herbicide test; conditions: 0.25 lb/A; for inhibition at 280.212 g/ha: Abutilon theophrasti, pre-emergence, read-out: % plant inhibition
Method: as §1, §2, §3

[9] = system: Giant Foxtail; test: pre-emergence herbicide test; conditions: 0.25 lb/A; for inhibition at 280.212 g/ha: Setaria faberi, pre-emergence, read-out: % plant inhibition
Method: as §1, §2, §3

[10] = system: Wild Oats; test: pre-emergence herbicide test; conditions: Avena fatua, pre-emergence, 0.25 lb/A; read-out: % plant inhibition
Method: as §1, §2, §3

[11] = system: Morning Glory; test: pre-emergence herbicide test; conditions: 0.25 lb/A
Method: as §1, §2, §3

[12] = system: Green Foxtail; test: pre-emergence herbicide test; conditions: Setaria viridis, pre-emergence; 0.25 lb/A; read-out: % plant inhibition
Method: as §1, §2, §3

[13] = system: Common Chickweed; test: pre-emergence herbicide test; conditions: pre-emergence, 0.25 lb/A; read-out: % plant inhibition
Method: as §1, §2, §3

[14] = system: Blackgrass; test: pre-emergence herbicide test; conditions: Alopecurus myosuroides, pre-emergence, 0.25 lb/A; read-out: % plant inhibition
Method: as §1, §2, §3

[15] = system: Seedling Johnsongrass; test: pre-emergence herbicide test; conditions: 0.25 lb/A; for inhibition at 280.212 g/ha: Sorghum halepense, pre-emergence, read-out: % plant inhibition
Method: as §1, §2, §3

[16] = system: Wheat; test: post-emergence herbicide test; conditions: Triticum aestivum, post-emergence, 0.25 lb/A; read-out: % plant inhibition
Text: (§4) Topsoil was placed in aluminum pans having holes in the bottom and compacted to a depth of 1.3 to 1.6 cm from the top of the pan. A predetermined number of seeds of each of several dicotyledonous and monocotyledonous annual plant species and/or vegetative propagules for the perennial plant species were placed on the soil and pressed into the soil surface. The seeds and/or vegetative propagules were covered with soil and leveled. The pans were then placed on a bench in the greenhouse and watered either from overheard irrigation or by subirrigation as needed. After the plants reach the desired age (two to three weeks), each pan, is removed individually to a spraying chamber and sprayed by means of an atomizer, operating at a spray pressure of 170.3 kPa […] at the application rates noted. In the spray solution was an amount of an emulsifying agent mixture to give a spray solution or suspension which contains about 0.4% by volume of the emulsifier. The spray solution or suspension contained a sufficient amount of the candidate chemical in order to give application rates of the active ingredient corresponding to those shown in Tables 4 and 5, while applying a total amount of solution or suspension equivalent to 1870 L/Ha (200 gallons/acre). […] The post-emergent herbicidal activity shown in these tables is the percent inhibition of each plant species. Testing with warm season and cool season plants is shown in tables 4a-4d and […], respectively.

[17] = system: Downy Brome; test: post-emergence herbicide test; conditions: Bromus tectorum, post-emergence, 0.25 lb/A; read-out: % plant inhibition
Text: as §4

[18] = system: Birdseye Speedwell; test: post-emergence herbicide test; conditions: post-emergence, 0.25 lb/A; read-out: % plant inhibition
Text: as §4

[19] = system: Bedstraw Catchweed; test: post-emergence herbicide test; conditions: Galium aparine, post-emergence, 0.25 lb/A; read-out: % plant inhibition
Text: as §4

[20] = system: Cocklebur; test: post-emergence herbicide test; conditions: Xanthium strumarium, post-emergence, 0.25 lb/A; read-out: % plant inhibition
Text: as §4

[21] = system: Soybean; test: post-emergence herbicide test; conditions: Glycine max, post-emergence, 0.25 lb/A; read-out: % plant inhibition
Text: as §4

[22] = system: Corn; test: post-emergence herbicide test; conditions: Zea mays, post-emergence, 0.25 lb/A; read-out: % plant inhibition
Text: as §4

[23] = system: Rape; test: post-emergence herbicide test; conditions: post-emergence, 0.25 lb/A; read-out: % plant inhibition
Text: as §4

[24] = system: Barnyardgrass; test: post-emergence herbicide test; conditions: Echinochloa crus-galli, post-emergence, 0.25 lb/A; read-out: % plant inhibition
Text: as §4

[25] = system: Velvetleaf; test: post-emergence herbicide test; conditions: Abutilon theophrasti, post-emergence, 0.25 lb/A; read-out: % plant inhibition
Text: as §4

[26] = system: Giant Foxtail; test: post-emergence herbicide test; conditions: Setaria faberi, post-emergence, 0.25 lb/A; read-out: % plant inhibition
Text: as §4

[27] = system: Wild Oats; test: post-emergence herbicide test; conditions: Avena fatua, post-emergence, 0.25 lb/A; read-out: % plant inhibition
Text: as §4

[28] = system: Morning Glory; test: post-emergence herbicide test; conditions: Ipomoea, post-emergence, 0.25 lb/A; read-out: % plant inhibition
Text: as §4

[29] = system: Green Foxtail; test: post-emergence herbicide test; conditions: Setaria viridis, post-emergence, 0.25 lb/A; read-out: % plant inhibition
Text: as §4

[30] = system: Common Chickweed; test: post-emergence herbicide test; conditions: post-emergence, 0.25 lb/A; read-out: % plant inhibition
Text: as §4

[31] = system: Blackgrass; test: post-emergence herbicide test; conditions: Alopecurus myosuroides, post-emergence, 0.25 lb/A; read-out: % plant inhibition
Text: as §4

[32] = system: Seedling Johnsongrass; test: post-emergence herbicide test; conditions: Sorghum halepense, post-emergence, 0.25 lb/A; read-out: % plant inhibition
Text: as §4

[33] = system: Corn; test: pre-emergence herbicide test; conditions: 0.25 lb/A
Method: as §1, §2, §3

SMILES	inhibition at 280.212 g/ha [1] [%]	inhibition at 280.212 g/ha [2] [%]	inhibition at 280.212 g/ha [3] [%]	inhibition at 280.212 g/ha [4] [%]	% plant inhibition [5]	inhibition at 280.212 g/ha [5] [%]	inhibition at 280.212 g/ha [6] [%]	inhibition at 280.212 g/ha [7] [%]	inhibition at 280.212 g/ha [8] [%]	% plant inhibition [9] [%]	inhibition at 280.212 g/ha [9] [%]	inhibition at 280.212 g/ha [10] [%]	inhibition at 280.212 g/ha [12] [%]	inhibition at 280.212 g/ha [13] [%]	inhibition at 280.212 g/ha [14] [%]	inhibition at 280.212 g/ha [15] [%]	inhibition at 280.212 g/ha [16] [%]	inhibition at 280.212 g/ha [17] [%]	inhibition at 280.212 g/ha [18] [%]	inhibition at 280.212 g/ha [19] [%]	also measured
CCOC(=O)c1cc(-c2nn(C)c(C(F)(F)F)c2C)c(F)cc1Cl [Compound 26, 2-chloro-5-[1,4-dimethyl-5-(trifluoromethyl)-1H-pyrazol-3-yl]-4-fluorobenzoic acid ethyl ester]	0	55	100	50	93% and 92%	85	40	100	100	100	99	65	100	100	95	100	17	45	85	60	% plant inhibition [11]: 97% and 98%; inhibition at 280.212 g/ha ([11]; Ipomoea, pre-emergence, read-out: % plant inhibition): 90%; inhibition at 280.212 g/ha [20]: 85%; inhibition at 280.212 g/ha [21]: 75%; inhibition at 280.212 g/ha [22]: 25%; inhibition at 280.212 g/ha [23]: 60%; inhibition at 280.212 g/ha [24]: 95%; inhibition at 280.212 g/ha [25]: 99%; inhibition at 280.212 g/ha [26]: 45%; inhibition at 280.212 g/ha [27]: 35%; inhibition at 280.212 g/ha [28]: 50%; inhibition at 280.212 g/ha [29]: 60%; inhibition at 280.212 g/ha [30]: 85%; inhibition at 280.212 g/ha [31]: 35%; inhibition at 280.212 g/ha [32]: 50%
CCCOC(=O)c1cc(-c2nn(C)c(C(F)(F)F)c2C)c(F)cc1Cl [Compound 19]	0	40	100	80	70%	60	50	98	90	100	99	75	100	100	95	95	10	25	55	60	% plant inhibition [33]: 28%; inhibition at 280.212 g/ha ([33]; Zea mays, pre-emergence, read-out: % plant inhibition): 25%; % plant inhibition [7]: 95%; % plant inhibition [8]: 98%; % plant inhibition [15]: 85%; inhibition at 280.212 g/ha [20]: 75%; inhibition at 280.212 g/ha [21]: 50%; inhibition at 280.212 g/ha [22]: 20%; inhibition at 280.212 g/ha [23]: 15%; inhibition at 280.212 g/ha [24]: 65%; inhibition at 280.212 g/ha [25]: 90%; inhibition at 280.212 g/ha [26]: 65%; inhibition at 280.212 g/ha [27]: 20%; inhibition at 280.212 g/ha [28]: 35%; inhibition at 280.212 g/ha [29]: 20%; inhibition at 280.212 g/ha [30]: 50%; inhibition at 280.212 g/ha [31]: 20%; inhibition at 280.212 g/ha [32]: 50%
